The values that follow come from patent US9447086B2, “6-amino acid heteroaryldihydropyrimidines for the treatment and prophylaxis of hepatitis B virus infection” (priority 2012, dated 2016).

Data set [1] relates to HBV. The data set can be described thus: Anti-HBV activity in vitro in HepG2.2.15 cells (extracellular HBV DNA by qPCR). The data set is classed as cell-based, Hepatitis B virus. The settings on record: Hepatitis B virus. The source says:
(§1) HepG2.2.15 and HepDE19 are stably-transfected cell lines containing the HBV genome. Both cell lines are derived from the hepatoblastoma cell line Hep G2 (American Type Culture Collection, ATCC® HB-8065™) by the published procedures described in references: MA Selles et al. Proc. Natl. Acad. Sci. USA 1987, 84, 1005-1009 and H Guo et al. Journal of Virology 2007, 81, 12472-12484, respectively. Both cell lines were maintained in Dulbecco's modified Eagle's medium (DMEM)-F12 medium supplemented with 10% fetal bovine serum, 100 U/mL penicillin, 100 μg/mL streptomycin, and 0.5 mg/mL of G418.
While HepG2.2.15 cells constitutively support HBV replication and production of virus particles, HepDE19 cells are inducible by tetracycline. Addition of 1 μg/mL tetracycline in culture medium suppresses HBV replication in HepDE19 cells, whereas switching to tetracycline-free medium resumes this process.
HepG2.2.15 cells were seeded into 96-well plates (3×10^4 cells in 100 μl media per well) and incubated overnight at 37° C. The test compounds were serially half-log diluted in DMSO, then diluted 100 times in culture media. 100 μL diluted compounds were added into the plates to reach 0.5% final concentration of DMSO in every well. Five days after compound treatment, culture supernatant was collected for further analysis.
For quantitative PCR detection of extracellular HBV DNA, 100 μL culture supernatant was collected and processed in MagNA Pure 96 Nucleic Acid Purification System (Roche Applied Science) for viral DNA extraction. The extracted samples were subjected to HBV DNA quantification by qPCR.
The compounds of the present invention were tested for their capacity to inhibit a HBV activity and activation as described herein.
On the technique in general: Real-time PCR tracks product formation cycle by cycle.

Data set [2] is described as follows: Cytotoxicity (CC50) in HepDE19 cells, CCK-8 cell viability. The data set is classed as cell-based. The settings on record: human, HepDE19 cells.
From the text: as §1
Five days after treatment, cell viability was measured by addition of 20 μL of CCK-8 reagent. Two hours after incubation at 37° C., the absorbance at wavelengths of 450 nm and 630 nm (OD450 and OD630) was recorded by a plate reader.

The test system of data set [3] is HBV. Nature of the data set: Selectivity index (CC50 value/EC50 value). The data set is classed as cell-based, Hepatitis B virus. The source says:
Based on FDA guidance, in order to support clinical testing in humans, the assessment of acceptable risk-benefit has to be achieved by providing clear evidence of in vitro antiviral activity (EC50) and cytotoxicity (CC50). It is important to establish that an investigational product has antiviral activity at concentrations that can be achieved in vivo without inducing toxic effects to cells. Furthermore, in a cell culture model, apparent antiviral activity of an investigational product can be the result of host cell death after exposure to the product. The relative effectiveness of the compound in inhibiting viral replication compared to inducing cell death is defined as the selectivity index (CC50 value/EC50 value). It is desirable to have a high selectivity index giving maximum antiviral activity with minimal cell toxicity.
The relative effectiveness of the compound in inhibiting viral replication compared to inducing cell death is defined as the selectivity index (CC50 value/EC50 value). It is desirable to have a high selectivity index giving maximum antiviral activity with minimal cell toxicity.

Data set [4] is described as follows: Metabolic stability study in human microsome. The format is in vitro ADME. The method in brief:
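Human liver microsomes (0.5 mg/mL) with 1 μM compound in 100 mM phosphate pH 7.4 at 37 °C, started with 1 mM NADPH or an NADPH-regenerating system. Samples taken at 0, 3, 6, 9, 15 and 30 min, quenched in methanol. Parent remaining measured by LC-MS/MS; no-cofactor controls included.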

A short description of data set [5]: Lyophilisation solubility assay (Lysa). The settings on record: phosphate buffer, pH 6.5, aqueous buffer, thermodynamic from solid. The data set is classed as physicochemical. The gist of the method: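 Duplicate samples from 10 mM DMSO stocks are dried, redissolved in 0.05 M phosphate buffer pH 6.5, stirred 1 h, shaken 2 h and left overnight. Filtrate and its 1/10 dilution are quantified by direct UV or HPLC-UV, giving solubility in μg/mL.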

[6] abbreviates: HepG2.2.15 cells, in-house data, read-out: EC50.

pEC50: −log10 of the molar value. In brackets after ≈: the same amount, converted by molar mass. Read-outs that look alike come from different tables or passages of the source. Bounds are passed on as bounds.

The pEC50 is the EC50 on a negative log10 scale, so that one unit is a factor of ten. As usually defined, the CC50 is the concentration giving 50% cytotoxicity. By thermodynamic solubility is commonly meant solubility found after equilibrating the solid with the medium. On to `[2H]C1([2H])[C@@H](C(=O)O)N(CC2=C(C(=O)OC)[C@H](c3ccc(F)cc3Cl)N=C(c3nccs3)N2)CC1(F)F` [Example 19, (R)-6-((S)-2-Carboxy-[3,3-^2H2]-4,4-difluoro-pyrrolidin-1-ylmethyl)-4-(2-chloro-4-fluoro-phenyl)-2-thiazol-2-yl-1,4-dihydro-pyrimidine-5-carboxylic acid methyl ester], for which the pEC50 in the data set with HBV [1] (setting [6]) is 8.24. Further, the CC50 at 5 days in data set [2] (read-out: CC50) is 89 µM. Further, in the data set on HBV [3], the “Selectivity index (CC50/EC50)” value is 15614. For the same compound, the “Human Hepatic Clearance” value in data set [4] was 3.65 mL/min/kg. The compound further yielded a solubility (thermodynamic) in data set [5] greater than 654 µg/mL.
In the same order, the values of `CCOC(=O)C1=C(CN2CCOC[C@H]2C(=O)O)NC(c2nccs2)=N[C@H]1c1ccc(Br)cc1F` [Example 93, (S)-4-[(R)-6-(4-Bromo-2-fluoro-phenyl)-5-ethoxycarbonyl-2-thiazol-2-yl-3,6-dihydro-pyrimidin-4-ylmethyl]-morpholine-3-carboxylic acid] are 8.37, 30 µM, 6977, 1.24 mL/min/kg and greater than 690 µg/mL.
In the same order, the values of `CCOC(=O)C1=C(CN2CCOC[C@H]2C(=O)O)NC(c2nccs2)=N[C@H]1c1ccc(Cl)cc1F` [Example 49, (S)-4-[(R)-6-(4-Chloro-2-fluoro-phenyl)-5-ethoxycarbonyl-2-thiazol-2-yl-3,6-dihydro-pyrimidin-4-ylmethyl]-morpholine-3-carboxylic acid] are 8.33, 42 µM, 8936, 0 mL/min/kg and greater than 679 µg/mL.
In the case of `CCOC(=O)C1=C(CN2CCOC[C@H]2C(=O)O)NC(c2nccs2)=N[C@H]1c1ccccc1Br` [Example 127, (S)-4-(((R)-6-(2-Bromophenyl)-5-(ethoxycarbonyl)-2-(thiazol-2-yl)-3,6-dihydropyrimidin-4-yl)methyl)morpholine-3 carboxylic acid], the pEC50 in the data set with HBV [1] (setting [6]) was 8.17. Moreover, the CC50 at 5 days in data set [2] (read-out: CC50) was greater than 100 µM. Moreover, the “Selectivity index (CC50/EC50)” value with HBV [3] was greater than 14925. In addition, in data set [4], the “Human Hepatic Clearance” value is on record as 2.44 mL/min/kg. Moreover, in data set [5], the thermodynamic solubility was greater than 672 µg/mL.
For `CCOC(=O)C1=C(CN2CCOC[C@H]2C(=O)O)NC(c2nccs2)=N[C@H]1c1ccc(Cl)c(Cl)c1` [Example 46, (S)-4-[(S)-6-(3,4-Dichloro-phenyl)-5-ethoxycarbonyl-2-thiazol-2-yl-3,6-dihydro-pyrimidin-4-ylmethyl]-morpholine-3-carboxylic acid] the same measures were 7.80, 36 µM, 2212, 0 mL/min/kg and greater than 655 µg/mL.
As to `CCOC(=O)C1=C(CN2CCOC[C@H]2C(=O)O)NC(c2nccs2)=N[C@H]1c1ccc(Br)c(F)c1` [Example 52, (S)-4-[(S)-6-(4-Bromo-3-fluoro-phenyl)-5-ethoxycarbonyl-2-thiazol-2-yl-3,6-dihydro-pyrimidin-4-ylmethyl]-morpholine-3-carboxylic acid], in the data set on HBV [1] (setting [6]), the pEC50 was 8.52. In addition, the CC50 at 5 days in data set [2] (read-out: CC50) came to 14 µM. For the same compound, the “Selectivity index (CC50/EC50)” value in the data set with HBV [3] stood at 4693. In data set [4], the “Human Hepatic Clearance” value worked out at 4.03 mL/min/kg. The compound further came in with a solubility (thermodynamic) in data set [5] greater than 665 µg/mL.
Consider `CCOC(=O)C1=C(CN2CCOC[C@H]2C(=O)O)NC(c2nccs2)=N[C@H]1c1ccccc1I` [Example 129, (3S)-4-[[(4R)-5-Ethoxycarbonyl-4-(2-iodophenyl)-2-(1,3-thiazol-2-yl)-1,4-dihydropyrimidin-6-yl]methyl]morpholine-3 carboxylic acid], for which the pEC50 in the data set with HBV [1] (setting [6]) was 8.12. The CC50 at 5 days in data set [2] (read-out: CC50) was greater than 100 µM. Further, in the data set with HBV [3], the “Selectivity index (CC50/EC50)” value was greater than 13158. Also, in data set [4], the “Human Hepatic Clearance” value worked out at 4.25 mL/min/kg.
The compound `COC(=O)C1=C(CN2CC(F)(F)C[C@H]2C(=O)O)NC(c2nccs2)=N[C@H]1c1ccc(F)cc1Br` [Example 84, (R)-4-(2-Bromo-4-fluoro-phenyl)-6-((S)-2-carboxy-4,4-difluoro-pyrrolidin-1-ylmethyl)-2-thiazol-2-yl-1,4-dihydro-pyrimidine-5-carboxylic acid methyl ester] showed a pEC50 in the data set on HBV [1] (HepG2.2.15) of 8.62. Further, the CC50 at 5 days in data set [2] was greater than 100 µM. For the same compound, the “Selectivity index (CC50/EC50)” value in the data set with HBV [3] was greater than 41667. Besides, in data set [4], the “Human Hepatic Clearance” value turned out to be 9.3 mL/min/kg. Moreover, in data set [5], the solubility (thermodynamic) is greater than 668 µg/mL.
`COC(=O)C1=C(CN2CCOC[C@H]2C(=O)O)NC(c2nccs2)=N[C@H]1c1ccc(Cl)cc1F` [Example 75, (S)-4-[(R)-6-(4-Chloro-2-fluoro-phenyl)-5-methoxycarbonyl-2-thiazol-2-yl-3,6-dihydro-pyrimidin-4-ylmethyl]-morpholine-3-carboxylic acid]: the pEC50 in the data set on HBV [1] (setting [6]) was 7.74. For the same compound, the CC50 at 5 days in data set [2] (read-out: CC50) was greater than 100 µM. Also, the “Selectivity index (CC50/EC50)” value in the data set on HBV [3] is given as 5556. For the same compound, in data set [4], the “Human Hepatic Clearance” value is reported as 0 mL/min/kg. Besides, in data set [5], the thermodynamic solubility is greater than 632 µg/mL.
Consider `COC(=O)C1=C(CN2CCOC[C@H]2C(=O)O)NC(c2nc(SC)cs2)=N[C@H]1c1ccc(F)cc1Cl` [Example 61, (3S)-4-[[(4R)-4-(2-Chloro-4-fluorophenyl)-5-methoxycarbonyl-2-(4-methylsulfanyl-1,3-thiazol-2-yl)-1,4-dihydropyrimidin-6-yl]methyl]morpholine-3-carboxylic acid], for which, in the data set on HBV [1] (setting [6]), the pEC50 is 7.74. Besides, the CC50 at 5 days in data set [2] (read-out: CC50) was determined as 56 µM. Moreover, the “Selectivity index (CC50/EC50)” value in the data set on HBV [3] was determined as 3133. The compound further displayed a solubility (thermodynamic) in data set [5] of 495 µg/mL (≈ 915 µM).
In the same order, the values of `COC(=O)C1=C(CN2CC(F)(F)C[C@H]2C(=O)O)NC(c2nc(C(C)C)cs2)=N[C@H]1c1ccc(F)cc1Cl` [Example 28, (R)-6-((S)-2-Carboxy-4,4-difluoro-pyrrolidin-1-ylmethyl)-4-(2-chloro-4-fluoro-phenyl)-2-(4-isopropyl-thiazol-2-yl)-1,4-dihydro-pyrimidine-5-carboxylic acid methyl ester] are 8.36, 31 µM, 7045 and 247 µg/mL (≈ 443 µM).
`CCOC(=O)C1=C(CN2CCO[C@H](C)[C@H]2C(=O)O)NC(c2nccs2)=N[C@H]1c1ccc(F)c(F)c1` [Example 112, (2R,3S)-4-[(S)-6-(3,4-Difluoro-phenyl)-5-ethoxycarbonyl-2-thiazol-2-yl-3,6-dihydro-pyrimidin-4-ylmethyl]-2-methyl-morpholine-3-carboxylic acid]: the pEC50 in the data set on HBV [1] (setting [6]) was 8.28. For the same compound, the CC50 at 5 days in data set [2] (read-out: CC50) amounted to 73 µM. For the same compound, in the data set with HBV [3], the “Selectivity index (CC50/EC50)” value came out at 14123. Besides, the “Human Hepatic Clearance” value in data set [4] stood at 1.95 mL/min/kg.
For `COC(=O)C1=C(CN2CCO[C@H](C)[C@H]2C(=O)O)NC(c2nccs2)=N[C@H]1c1ccccc1Br` [Example 119, (2R,3S)-4-[(R)-6-(2-Bromo-phenyl)-5-methoxycarbonyl-2-thiazol-2-yl-3,6-dihydro-pyrimidin-4-ylmethyl]-2-methyl-morpholine-3-carboxylic acid] the same measures were 8.52, greater than 100 µM, greater than 33333 and 0.85 mL/min/kg.
